{"source": "patent US11849728B2", "about": "“Method for controlling soybean rust fungus having resistance against Qo site inhibitor” (SUMITOMO CHEMICAL COMPANY, LIMITED, priority 2018, dated 2023)", "tested_on": "soybean rust fungus (Phakopsora pachyrhizi) having an amino acid substitution of F129L on mitochondrial cytochrome b protein", "experiment": "Leaf disk test for control of soybean rust (Test Example 1 / Comparative Test Example 1)", "assay_type": "in vivo", "details": "method of Test Example 1", "description": "Soybean leaf (cv; Kurosengoku) was punched out to 1 cm diameter to prepare a leaf disk. Each 1 mL of an agar medium (agar concentration 1.2%) was dispensed in 24 well microplate. A piece of the leaf disk was placed on each well. To a mixture of 0.5 μL of Sorpol (registered trademark) 1200KX, 4.5 μL of DMSO, and 5 μL of xylene was added 20 μL of a solution containing 10000 ppm of the test compound in DMSO. The resulting mixture was diluted with ion exchange water to prepare a spray solution containing a predetermined concentration of the test compound. The spray solution was sprayed in 10 μL per one leaf disk. After 1 day, an aqueous suspension of spores of soybean rust fungus (Phakopsora pachyrhizi) having an amino acid substitution of F129L on mitochondrial cytochrome b protein (1.0×10^5/mL) was inoculated onto the leaf disks. After the inoculation, the microplate was placed in a growth chamber (light on for 6 hours, light off for 18 hours, 23° C. temperature, 60% humidity). After 1 day, the leaf disks were air-dried to disappear water droplets on the surface of the leaf disk, and the microplate was placed again in the growth chamber for 12 days. Thereafter, a lesion area of soybean rust disease was assessed. […] Here the untreated means that the spray solution containing the test compound was not sprayed onto the leaf disk.\nThe test was conducted by using as a test compound the compound 3 or 8 of the present invention, the present compound 6, 12, 13, 22, 38, 40, 48, 51, 64 or 84, pyraclostrobin, azoxystrobin, picoxystrobin, orysastrobin, dimoxystrobin, metominostrobin, or pyribencarb at 12.5 ppm or 3.1 ppm according to a method described in the Test Example 1. The results are indicated in [Table A], [Table B], and [Table C]."}
{"smiles": "CO/C=C(\\Oc1cc(/C=C/C2CC2)ccc1C)C(=O)OC", "note": "[Compound 3 of the present invention]", "values": [{"measurement": "Lesion area (%)", "setting": "3.1 ppm", "result": 10, "unit": "%"}, {"measurement": "Lesion area (%)", "setting": "12.5 ppm", "result": 0, "unit": "%"}]}
{"smiles": "CO/N=C(\\Cc1cc(C#CC(C)(C)C)ccc1C)C(=O)OC", "note": "[Present Compound 6]", "values": [{"measurement": "Lesion area (%)", "setting": "3.1 ppm", "result": 0, "unit": "%"}, {"measurement": "Lesion area (%)", "setting": "12.5 ppm", "result": 0, "unit": "%"}]}
{"smiles": "CNC(=O)/C(Cc1cc(C#CC(C)(C)OC)ccc1C)=N/OC", "note": "[Present Compound 12]", "values": [{"measurement": "Lesion area (%)", "setting": "3.1 ppm", "result": 0, "unit": "%"}, {"measurement": "Lesion area (%)", "setting": "12.5 ppm", "result": 0, "unit": "%"}]}
{"smiles": "COc1nn(C)c(=O)n1Cc1cc(C#C[Si](C)(C)C)ccc1C", "note": "[Present Compound 13]", "values": [{"measurement": "Lesion area (%)", "setting": "3.1 ppm", "result": 30, "unit": "%"}, {"measurement": "Lesion area (%)", "setting": "12.5 ppm", "result": 0, "unit": "%"}]}
{"smiles": "CO/C=C(\\Oc1cc(-c2ccc(F)cc2)ccc1C)C(=O)OC", "note": "[Present Compound 22]", "values": [{"measurement": "Lesion area (%)", "setting": "3.1 ppm", "result": 10, "unit": "%"}, {"measurement": "Lesion area (%)", "setting": "12.5 ppm", "result": 0, "unit": "%"}]}
{"smiles": "Cc1ccc(-c2ccccc2)cc1Cn1c(C(F)F)nn(C)c1=O", "note": "[Present Compound 40]", "values": [{"measurement": "Lesion area (%)", "setting": "3.1 ppm", "result": 0, "unit": "%"}, {"measurement": "Lesion area (%)", "setting": "12.5 ppm", "result": 0, "unit": "%"}]}
{"smiles": "CO/C=C(\\Oc1cc(/C(C)=N/OCc2cccc(C)c2)ccc1C)C(=O)OC", "note": "[Present Compound 48]", "values": [{"measurement": "Lesion area (%)", "setting": "12.5 ppm", "result": 0, "unit": "%"}]}
{"smiles": "CCCO/N=C(\\C)c1ccc(C)c(C/C(=N\\OC)C(=O)NC)c1", "note": "[Present Compound 51]", "values": [{"measurement": "Lesion area (%)", "setting": "12.5 ppm", "result": 0, "unit": "%"}]}
{"smiles": "CO/C=C(\\Oc1cc(-c2cccs2)ccc1C)C(=O)OC", "note": "[Present Compound 64]", "values": [{"measurement": "Lesion area (%)", "setting": "3.1 ppm", "result": 10, "unit": "%"}, {"measurement": "Lesion area (%)", "setting": "12.5 ppm", "result": 0, "unit": "%"}]}
{"smiles": "CO/C=C(\\Oc1cc(/C(C)=N/OCC2CCC2)ccc1C)C(=O)OC", "note": "[Present Compound 84]", "values": [{"measurement": "Lesion area (%)", "setting": "12.5 ppm", "result": 0, "unit": "%"}]}
{"smiles": "CO/C=C(/C(=O)OC)c1ccccc1Oc1cc(Oc2ccccc2C#N)ncn1", "note": "[azoxystrobin, reference compound]", "values": [{"measurement": "Lesion area (%)", "setting": "3.1 ppm", "result": 100, "unit": "%"}, {"measurement": "Lesion area (%)", "setting": "12.5 ppm", "result": 100, "unit": "%"}]}
{"smiles": "CNC(=O)/C(=N/OC)c1ccccc1COc1cc(C)ccc1C", "note": "[dimoxystrobin, reference compound]", "values": [{"measurement": "Lesion area (%)", "setting": "3.1 ppm", "result": 100, "unit": "%"}, {"measurement": "Lesion area (%)", "setting": "12.5 ppm", "result": 100, "unit": "%"}]}
{"smiles": "CNC(=O)/C(=N/OC)c1ccccc1Oc1ccccc1", "note": "[metominostrobin, reference compound]", "values": [{"measurement": "Lesion area (%)", "setting": "3.1 ppm", "result": 100, "unit": "%"}, {"measurement": "Lesion area (%)", "setting": "12.5 ppm", "result": 100, "unit": "%"}]}
{"smiles": "CNC(=O)/C(=N/OC)c1ccccc1CO/N=C(C)/C(=N/OC)C(/C)=N/OC", "note": "[orysastrobin, reference compound]", "values": [{"measurement": "Lesion area (%)", "setting": "3.1 ppm", "result": 100, "unit": "%"}, {"measurement": "Lesion area (%)", "setting": "12.5 ppm", "result": 100, "unit": "%"}]}
{"smiles": "CO/C=C(/C(=O)OC)c1ccccc1COc1cccc(C(F)(F)F)n1", "note": "[picoxystrobin, reference compound]", "values": [{"measurement": "Lesion area (%)", "setting": "3.1 ppm", "result": 100, "unit": "%"}, {"measurement": "Lesion area (%)", "setting": "12.5 ppm", "result": 100, "unit": "%"}]}
{"smiles": "COC(=O)N(OC)c1ccccc1COc1ccn(-c2ccc(Cl)cc2)n1", "note": "[pyraclostrobin, reference compound]", "values": [{"measurement": "Lesion area (%)", "setting": "3.1 ppm", "result": 100, "unit": "%"}, {"measurement": "Lesion area (%)", "setting": "12.5 ppm", "result": 100, "unit": "%"}]}
{"smiles": "COC(=O)NCc1cc(/C(C)=N/OCc2cccc(C)n2)ccc1Cl", "note": "[pyribencarb, reference compound]", "values": [{"measurement": "Lesion area (%)", "setting": "3.1 ppm", "result": 100, "unit": "%"}, {"measurement": "Lesion area (%)", "setting": "12.5 ppm", "result": 100, "unit": "%"}]}
